Broadly, the IC50 is the midpoint of a concentration-inhibition curve.

The record followed here is patent US20240190890A1, “MK2 INHIBITORS AND USES THEREOF” (Bristol-Myers Squibb Company, priority 2022, published 2024).

The target in the assay is p38a activated, mitogen-activated protein kinase-activated protein kinase 2 (MAPKAP-K2 or MK2) enzyme (Homo sapiens (Human), UniProt P49137). Briefly: MK2 Omnia continuous-read kinase assay for compound potency. It counts as biochemical. The note with it: [MK-2]=0.4 nM, [ATP]=10 μM, [ST3-Sox]=10 μM; room temperature. The essentials: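 Continuous Sox-peptide fluorescence read (ex360/em485) every 71 s over 2 h at room temperature. Reactions: 10 μM each of ATP (at apparent Km) and S/T3-Sox, 0.4 nM p38a-activated MK2, pH 7.5 Tris/MgCl2 buffer. Initial rates yield % inhibition and IC50; single-exponential kobs values yield apparent kinact/KI.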
Sequence of p38a activated, mitogen-activated protein kinase-activated protein kinase 2 (MAPKAP-K2 or MK2) enzyme (P49137 whole entry): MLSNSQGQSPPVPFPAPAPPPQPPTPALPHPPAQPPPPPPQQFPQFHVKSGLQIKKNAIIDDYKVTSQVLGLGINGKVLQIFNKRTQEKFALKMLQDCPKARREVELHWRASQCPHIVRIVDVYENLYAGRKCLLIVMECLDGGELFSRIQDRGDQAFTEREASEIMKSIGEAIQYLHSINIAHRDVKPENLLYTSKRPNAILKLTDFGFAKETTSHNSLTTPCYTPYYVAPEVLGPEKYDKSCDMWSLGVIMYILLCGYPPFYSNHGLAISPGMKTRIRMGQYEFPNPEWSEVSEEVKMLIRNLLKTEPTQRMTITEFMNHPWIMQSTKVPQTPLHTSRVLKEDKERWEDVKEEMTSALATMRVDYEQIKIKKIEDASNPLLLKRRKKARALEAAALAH
In the case of `C=Cc1cc(-c2ccc3c(ccc4sc5c(c43)NC[C@@H](C)NC5=O)n2)cc(C2CCN(C)CC2)n1` [Example I-106, (R)-10-methyl-3-(2-(1-methylpiperidin-4-yl)-6-vinylpyridin-4-yl)-9,10,11,12-tetrahydro-8H-[1,4]diazepino[5′,6′:4,5]thieno[3,2-f]quinolin-8-one], the IC50 is 8 nM.
Under `C[C@@H]1CNc2c(sc3ccc4nc(-c5cc(Cl)ncc5F)ccc4c23)C(=O)N1` [Example I-69, (R)-3-(2-chloro-5-fluoropyridin-4-yl)-10-methyl-9,10,11,12-tetrahydro-8H-[1,4]diazepino[5′,6′:4,5]thieno[3,2-f]quinolin-8-one] stands 27 nM.
Turning to `C[C@@H]1CNc2c(sc3ccc4nc(-c5nc(Cl)ncc5C#N)ccc4c23)C(=O)N1` [Example I-9, (R)-2-chloro-4-(10-methyl-8-oxo-9,10,11,12-tetrahydro-8H-[1,4]diazepino[5′,6′:4,5]thieno[3,2-f]quinolin-3-yl)pyrimidine-5-carbonitrile], the IC50 is 97 nM.
Take `C=Cc1cc(-c2ccc3c(ccc4sc5c(c43)NC[C@@H](C)NC5=O)n2)c(NC)nn1` [Example I-128, (R)-10-methyl-3-(3-(methylamino)-6-vinylpyridazin-4-yl)-9,10,11,12-tetrahydro-8H-[1,4]diazepino[5′,6′:4,5]thieno[3,2-f]quinolin-8-one]: the concentration for half-maximal inhibition (IC50) came to 19 nM.
As to `C=Cc1nccn1-c1ccc2c(ccc3sc4c(c32)NC[C@@H](C)NC4=O)n1` [Example I-164, (R)-10-methyl-3-(2-vinyl-1H-imidazol-1-yl)-9,10,11,12-tetrahydro-8H-[1,4]diazepino[5′,6′:4,5]thieno[3,2-f]quinolin-8-one], the IC50 was 1 nM.
Consider `C=Cc1nnc(C)n1-c1ccc2c(ccc3sc4c(c32)NC[C@@H](C)NC4=O)n1` [Example I-223, (R)-10-methyl-3-(3-methyl-5-vinyl-4H-1,2,4-triazol-4-yl)-9,10,11,12-tetrahydro-8H-[1,4]diazepino[5′,6′:4,5]thieno[3,2-f]quinolin-8-one], for which the 50% inhibitory concentration (IC50) was found to be 1000 nM.
In the case of `C=Cc1cc(-c2ccc3c(ccc4sc5c(c43)NC[C@@H](C)NC5=O)n2)cc(CN2CCC(OC(F)(F)F)CC2)n1` [Example I-189, (R)-10-methyl-3-(2-((4-(trifluoromethoxy)piperidin-1-yl)methyl)-6-vinylpyridin-4-yl)-9,10,11,12-tetrahydro-8H-[1,4]diazepino[5′,6′:4,5]thieno[3,2-f]quinolin-8-one], the 50% inhibitory concentration (IC50) was 206 nM.
For `C=Cc1ncc(-c2ccc3c(ccc4sc5c(c43)NC[C@@H](C)NC5=O)n2)s1` [Example I-209, (R)-10-methyl-3-(2-vinylthiazol-5-yl)-9,10,11,12-tetrahydro-8H-[1,4]diazepino[5′,6′:4,5]thieno[3,2-f]quinolin-8-one], the half-inhibitory concentration (IC50) came out at 15 nM.
Turning to `C[C@@H]1CNc2c(sc3ccc4nc(-n5c(Br)nc(Cl)c5Cl)ccc4c23)C(=O)N1` [Example I-250, (R)-3-(2-bromo-4,5-dichloro-1H-imidazol-1-yl)-10-methyl-9,10,11,12-tetrahydro-8H-[1,4]diazepino[5′,6′:4,5]thieno[3,2-f]quinolin-8-one], the IC50 turned out to be 580 nM.
As to `C=Cc1nscc1-c1ccc2c(ccc3sc4c(c32)NC[C@@H](C)NC4=O)n1` [Example I-228, (R)-10-methyl-3-(3-vinylisothiazol-4-yl)-9,10,11,12-tetrahydro-8H-[1,4]diazepino[5′,6′:4,5]thieno[3,2-f]quinolin-8-one], the IC50 came to 128 nM.
To `C=Cc1cc(-c2ccc3c(ccc4sc5c(c43)NC[C@@H](C)NC5=O)n2)cc(N2CCC2)n1` [Example I-179, (R)-3-(2-(azetidin-1-yl)-6-vinylpyridin-4-yl)-10-methyl-9,10,11,12-tetrahydro-8H-[1,4]diazepino[5′,6′:4,5]thieno[3,2-f]quinolin-8-one] belongs 11 nM.
For `C#Cc1cc(-c2ccc3c(ccc4sc5c(c43)NC[C@@H](C)NC5=O)n2)c(C)cn1` [Example I-111, (R)-3-(2-ethynyl-5-methylpyridin-4-yl)-10-methyl-9,10,11,12-tetrahydro-8H-[1,4]diazepino[5′,6′:4,5]thieno[3,2-f]quinolin-8-one], the concentration for half-maximal inhibition (IC50) was 104 nM.
Turning to `C=C(CN1CCOCC1)c1cc(-c2ccc3c(ccc4sc5c(c43)NC[C@@H](C)NC5=O)n2)c(OC)nn1` [Example I-138, (R)-3-(3-methoxy-6-(3-morpholinoprop-1-en-2-yl)pyridazin-4-yl)-10-methyl-9,10,11,12-tetrahydro-8H-[1,4]diazepino[5′,6′:4,5]thieno[3,2-f]quinolin-8-one], the IC50 is 96 nM.
For `C=Cc1cnn(-c2ccc3c(ccc4sc5c(c43)NC[C@@H](C)NC5=O)n2)c1` [Example I-148, (R)-10-methyl-3-(4-vinyl-1H-pyrazol-1-yl)-9,10,11,12-tetrahydro-8H-[1,4]diazepino[5′,6′:4,5]thieno[3,2-f]quinolin-8-one], the half-inhibitory concentration (IC50) was 101 nM.
As for `C[C@@H]1CNc2c(sc3ccc4nc(-c5ccnc(Cl)n5)ccc4c23)C(=O)N1` [Example I-8, (R)-3-(2-chloropyrimidin-4-yl)-10-methyl-9,10,11,12-tetrahydro-8H-[1,4]diazepino[5′,6′:4,5]thieno[3,2-f]quinolin-8-one], the IC50 came out at 75 nM.
For `C#Cc1cc(-c2ccc3c(ccc4sc5c(c43)NC[C@@H](C)NC5=O)n2)cc(Cl)n1` [Example I-73, (R)-3-(2-chloro-6-ethynylpyridin-4-yl)-10-methyl-9,10,11,12-tetrahydro-8H-[1,4]diazepino[5′,6′:4,5]thieno[3,2-f]quinolin-8-one], the half-inhibitory concentration (IC50) was 75 nM.
For `C=Cc1nc(C(=O)OCC)c(-c2ccc3c(ccc4sc5c(c43)NC[C@@H](C)NC5=O)n2)s1` [Example I-234, ethyl (R)-5-(10-methyl-8-oxo-9,10,11,12-tetrahydro-8H-[1,4]diazepino[5′,6′:4,5]thieno[3,2-f]quinolin-3-yl)-2-vinylthiazole-4-carboxylate], the half-inhibitory concentration (IC50) turned out to be 18 nM.
`C[C@@H]1CNc2c(sc3ccc4nc(-c5cc(Cl)nc(Cl)c5)ccc4c23)C(=O)N1` [Example I-68, (R)-3-(2,6-dichloropyridin-4-yl)-10-methyl-9,10,11,12-tetrahydro-8H-[1,4]diazepino[5′,6′:4,5]thieno[3,2-f]quinolin-8-one]: the IC50 worked out at 472 nM.
To `C[C@@H]1CNc2c(sc3ccc4nc(-c5cc(C#CC(C)(C)N)nc(Cl)n5)ccc4c23)C(=O)N1` [Example I-63, (R)-3-(6-(3-amino-3-methylbut-1-yn-1-yl)-2-chloropyrimidin-4-yl)-10-methyl-9,10,11,12-tetrahydro-8H-[1,4]diazepino[5′,6′:4,5]thieno[3,2-f]quinolin-8-one] belongs 145 nM; to `C=Cc1cc(-c2ccc3c(ccc4sc5c(c43)NC[C@@H](C)NC5=O)n2)cc(N2CC3(COC3)C2)n1` [Example I-238, (R)-3-(2-(2-oxa-6-azaspiro[3.3]heptan-6-yl)-6-vinylpyridin-4-yl)-10-methyl-9,10,11,12-tetrahydro-8H-[1,4]diazepino[5′,6′:4,5]thieno[3,2-f]quinolin-8-one], 6 nM; to `C=Cc1cc(-c2ccc3c(ccc4sc5c(c43)NC[C@@H](C)NC5=O)n2)c(C2CC2)cn1` [Example I-196, (R)-3-(5-cyclopropyl-2-vinylpyridin-4-yl)-10-methyl-9,10,11,12-tetrahydro-8H-[1,4]diazepino[5′,6′:4,5]thieno[3,2-f]quinolin-8-one], 5 nM.
With `COc1cnc(Cl)nc1-c1ccc2c(ccc3sc4c(c32)NC[C@@H](C)NC4=O)n1` [Example I-10, (R)-3-(2-chloro-5-methoxypyrimidin-4-yl)-10-methyl-9,10,11,12-tetrahydro-8H-[1,4]diazepino[5′,6′:4,5]thieno[3,2-f]quinolin-8-one], the IC50 is 291 nM.
As to `C=Cc1ncc(COCC)c(-c2ccc3c(ccc4sc5c(c43)NC[C@@H](C)NC5=O)n2)n1` [Example I-5, (R)-3-(5-(ethoxymethyl)-2-vinylpyrimidin-4-yl)-10-methyl-9,10,11,12-tetrahydro-8H-[1,4]diazepino[5′,6′:4,5]thieno[3,2-f]quinolin-8-one], the IC50 was 7 nM.
As for `C=Cc1nc(-c2ccc3c(ccc4sc5c(c43)NC[C@@H](C)NC5=O)n2)nn1C` [Example I-208, (R)-10-methyl-3-(1-methyl-5-vinyl-1H-1,2,4-triazol-3-yl)-9,10,11,12-tetrahydro-8H-[1,4]diazepino[5′,6′:4,5]thieno[3,2-f]quinolin-8-one], the IC50 is 285 nM.
As for `[2H]C([2H])([2H])c1cnc(C=C)cc1-c1ccc2c(ccc3sc4c(c32)NC[C@@H](C)NC4=O)n1` [Example I-142, (R)-10-methyl-3-(5-(methyl-d3)-2-vinylpyridin-4-yl)-9,10,11,12-tetrahydro-8H-[1,4]diazepino[5′,6′:4,5]thieno[3,2-f]quinolin-8-one], the IC50 worked out at 9 nM.
Turning to `C[C@@H]1CNc2c(sc3ccc4nc(-c5cc(CO)nc(Cl)n5)ccc4c23)C(=O)N1` [Example I-84, (R)-3-(2-chloro-6-(hydroxymethyl)pyrimidin-4-yl)-10-methyl-9,10,11,12-tetrahydro-8H-[1,4]diazepino[5′,6′:4,5]thieno[3,2-f]quinolin-8-one], the IC50 amounted to 39 nM.
`C[C@@H]1CNc2c(sc3ccc4nc(-c5nc(Cl)cc(N6CCN(C)CC6)n5)ccc4c23)C(=O)N1` [Example I-43, (R)-3-(4-chloro-6-(4-methylpiperazin-1-yl)pyrimidin-2-yl)-10-methyl-9,10,11,12-tetrahydro-8H-[1,4]diazepino[5′,6′:4,5]thieno[3,2-f]quinolin-8-one]: the IC50 is 440 nM.
To `C=Cc1cc(-c2ccc3c(ccc4sc5c(c43)NC[C@@H](C)NC5=O)n2)cc(N2CCC(OC)CC2)n1` [Example I-158, (R)-3-(2-(4-methoxypiperidin-1-yl)-6-vinylpyridin-4-yl)-10-methyl-9,10,11,12-tetrahydro-8H-[1,4]diazepino[5′,6′:4,5]thieno[3,2-f]quinolin-8-one] belongs 38 nM.
